# Test results taken from EPA's ToxRefDB 2.
# Tests used:
# rat [1] = conditions: Subchronic oral toxicity in rodents, wistar, Feed, dose end: 13 week, group: systemic
# rat [2] = conditions: Combined chronic toxicity/carcinogenicity, fischer, Oral, Feed, dose end: 2 year, group: systemic
# dog = conditions: Chronic toxicity, beagle, Oral, Feed, dose end: 52 week, group: systemic, systemic / in life observation / clinical signs / feces
# mouse [3] = conditions: Carcinogenicity, b6c3f1, Oral, Feed, dose end: 18 month
# rat [4] = conditions: Combined chronic toxicity/carcinogenicity, fischer, Oral, Feed, dose end: 24 month
# rat [5] = conditions: Combined chronic toxicity/carcinogenicity, fischer, Oral, Feed, dose end: 24 month; remark: listed apart in the source
# rat [6] = conditions: Developmental neurotoxicity ChE Inhibition study; sprague dawley; Oral; Gavage/Intubation; dose end: 21 PND; group: cannot be grouped; cholinesterase / cholinesterase / cholinesterase / erythrocyte cholinesterase (che)
# hamster = conditions: Subchronic oral toxicity in rodents, golden syrian, Feed, dose end: 13 week, group: systemic
# rat [7] = conditions: Subchronic oral toxicity in rodents, sprague dawley, Feed, dose end: 13 week, group: systemic
# mouse [8] = conditions: Subchronic oral toxicity in rodents, b6c3f1, Feed, dose end: 13 week, group: systemic
# [9] = systemic / clinical chemistry / sodium / sodium
# [10] = systemic / hematology / blood clotting / blood clotting - prothrombin time + systemic / hematology / blood clotting / blood clotting - …
# [11] = systemic / clinical chemistry / urea nitrogen / urea nitrogen
# [12] = systemic / hematology / platelet / platelet + systemic / in life observation / body weight / body weight + systemic / in life observation / …
# [13] = discoloration + systemic / hematology / blood clotting / blood clotting - activated…
# [14] = group: cholinesterase, cholinesterase / cholinesterase / cholinesterase / erythrocyte cholinesterase (che) + cholinesterase / cholinesterase / cholinesterase / …
# [15] = group: systemic, systemic / in life observation / body weight / body weight + systemic / in life observation / food consumption / food consumption + systemic…
# [16] = group: cholinesterase, cholinesterase / cholinesterase / cholinesterase / plasma cholinesterase (che)
# [17] = group: cholinesterase, cholinesterase / cholinesterase / cholinesterase / plasma cholinesterase (che) + cholinesterase / cholinesterase / cholinesterase / brain …
# [18] = group: systemic, systemic / pathology microscopic / parathyroid gland / hyperplasia
# [19] = group: systemic, systemic / pathology microscopic / parathyroid gland / hyperplasia + systemic / hematology / erythrocyte (rbc) count differential / …
# [20] = group: cholinesterase, cholinesterase / cholinesterase / cholinesterase / erythrocyte cholinesterase (che)
# [21] = group: systemic, systemic / hematology / mean corpuscular (cell) volume (mcv) / mean corpuscular (cell) volume (mcv) + systemic / hematology / mean …
# [22] = group: systemic, systemic / in life observation / food consumption / food consumption + systemic / pathology microscopic / parathyroid gland / hyperplasia
# [23] = systemic / in life observation / body weight / body weight + systemic / in life observation / body weight / body weight gain + systemic / …
# [24] = systemic / pathology microscopic / liver / cytoplasmic alteration + systemic / clinical chemistry / cholesterol / cholesterol + systemic / …
# [25] = systemic / clinical chemistry / alkaline phosphatase (alp/alk) / alkaline phosphatase (alp/alk) + systemic / organ weight / kidney / …
structure (smiles),measurement,setting,value
CC(C)N1C(=O)c2ccccc2NS1(=O)=O [Bentazon],LEL,rat [1]; [9],25.3 mg/kg/day
same,NEL,rat [1]; [9],< 25.3 mg/kg/day
same,LOAEL,rat [1]; [10],243 mg/kg/day
same,NOAEL,rat [1]; [10],77.8 mg/kg/day
same,LEL,rat [2]; [11],9 mg/kg/day
same,NEL,rat [2]; [11],< 9 mg/kg/day
same,LOAEL,rat [2]; [12],180 mg/kg/day
same,NOAEL,rat [2]; [12],35 mg/kg/day
same,LOAEL,dog; discoloration,13.1 mg/kg/day
same,NEL,dog; [13],3.2 mg/kg/day
same,NOAEL,dog; [13],3.2 mg/kg/day
same,LEL,dog; discoloration + systemic / in life observation / clinical signs / [other],13.1 mg/kg/day
CCOC(=O)CC(SP(=S)(OC)OC)C(=O)OCC (configuration not stated) [Malathion],LEL,mouse [3]; [14],143 mg/kg/day
same,LOAEL,mouse [3]; [14],143 mg/kg/day
same,NEL,mouse [3]; [14],17.4 mg/kg/day
same,NOAEL,mouse [3]; [14],17.4 mg/kg/day
same,LEL,mouse [3]; [15],1480 mg/kg/day
same,LOAEL,mouse [3]; [15],1480 mg/kg/day
same,NEL,mouse [3]; [15],143 mg/kg/day
same,NOAEL,mouse [3]; [15],143 mg/kg/day
same,LOAEL,rat [4]; [16],29 mg/kg/day
same,NEL,rat [4]; [17],4 mg/kg/day
same,NOAEL,rat [4]; [17],4 mg/kg/day
same,LEL,"rat [4]; group: cholinesterase, cholinesterase / cholinesterase / cholinesterase / plasma cholinesterase (che) + cholinesterase / cholinesterase / cholinesterase / …",29 mg/kg/day
same,LEL,rat [4]; [18],4 mg/kg/day
same,NEL,rat [4]; [18],< 4 mg/kg/day
same,LOAEL,rat [4]; [19],> 739 mg/kg/day
same,NOAEL,rat [4]; [19],≥ 739 mg/kg/day
same,LEL,rat [5]; [20],5 mg/kg/day
same,NEL,rat [5]; [20],< 5 mg/kg/day
same,LOAEL,rat [5]; [16],29 mg/kg/day
same,NOAEL,rat [5]; [17],4 mg/kg/day
same,LOAEL,rat [5]; [21],359 mg/kg/day
same,NOAEL,rat [5]; [21],29 mg/kg/day
same,LEL,rat [5]; [22],4 mg/kg/day
same,NEL,rat [5]; [22],< 4 mg/kg/day
same,LEL,rat [6],5 mg/kg/day
same,LOAEL,rat [6],5 mg/kg/day
same,NEL,rat [6],< 5 mg/kg/day
same,NOAEL,rat [6],< 5 mg/kg/day
Cc1cccc(Nc2cc(Cl)nc(SCC(=O)O)n2)c1C [Pirinixic acid],LOAEL,hamster; [23],0.7 mg/kg/day
same,NOAEL,hamster; [23],0.4 mg/kg/day
same,LEL,hamster; [24],0.4 mg/kg/day
same,NEL,hamster; [24],< 0.4 mg/kg/day
same,LEL,rat [7]; [25],0.3 mg/kg/day
same,NEL,rat [7]; [25],< 0.3 mg/kg/day
same,NOAEL,rat [7]; [25],0.6 mg/kg/day
same,LOAEL,rat [7]; systemic / pathology microscopic / liver / cytoplasmic alteration + systemic / in life observation / body weight / body weight + systemic / …,3 mg/kg/day
same,LOAEL,mouse [8]; [23],22 mg/kg/day
same,NOAEL,mouse [8]; [23],12 mg/kg/day
same,LEL,mouse [8]; [24],0.9 mg/kg/day
same,NEL,mouse [8]; [24],< 0.9 mg/kg/day
